Test results taken from ChEMBL document CHEMBL1139978, “Synthesis and radiopharmacological characterization of [11C]AL-438 as a nonsteroidal ligand for imaging brain glucocorticoid receptors” (Bioorg Med Chem Lett, 2007).

How the values were obtained:
Progesterone receptor = Progesterone receptor (Rattus norvegicus, UniProt Q63449); test: Binding affinity to progesterone receptor
Glucocorticoid receptor = target: T1, Glucocorticoid receptor (Rattus norvegicus, UniProt P06536); test: Binding affinity to rat glucocorticoid receptor
T1 sequence (P06536 whole entry): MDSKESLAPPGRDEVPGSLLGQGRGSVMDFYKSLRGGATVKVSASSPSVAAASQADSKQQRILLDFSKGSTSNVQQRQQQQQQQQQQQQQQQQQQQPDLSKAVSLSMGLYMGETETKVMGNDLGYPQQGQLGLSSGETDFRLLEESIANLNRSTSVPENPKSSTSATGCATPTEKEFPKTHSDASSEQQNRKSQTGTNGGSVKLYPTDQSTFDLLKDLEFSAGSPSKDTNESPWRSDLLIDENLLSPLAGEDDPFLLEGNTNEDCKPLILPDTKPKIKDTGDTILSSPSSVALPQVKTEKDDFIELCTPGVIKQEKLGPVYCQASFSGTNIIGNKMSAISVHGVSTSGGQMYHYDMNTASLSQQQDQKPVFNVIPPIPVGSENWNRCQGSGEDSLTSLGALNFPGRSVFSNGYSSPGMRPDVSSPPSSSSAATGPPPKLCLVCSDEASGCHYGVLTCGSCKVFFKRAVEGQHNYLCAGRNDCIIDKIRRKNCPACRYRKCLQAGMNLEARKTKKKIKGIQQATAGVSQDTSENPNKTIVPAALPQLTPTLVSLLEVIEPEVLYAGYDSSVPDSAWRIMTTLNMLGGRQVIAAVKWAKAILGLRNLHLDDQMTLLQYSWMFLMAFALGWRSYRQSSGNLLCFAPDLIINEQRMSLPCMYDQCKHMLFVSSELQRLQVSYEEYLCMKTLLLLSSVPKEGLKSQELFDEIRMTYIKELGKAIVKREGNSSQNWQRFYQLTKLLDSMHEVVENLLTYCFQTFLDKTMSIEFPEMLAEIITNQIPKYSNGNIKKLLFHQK

Progesterone receptor, sequence (Q63449 whole entry): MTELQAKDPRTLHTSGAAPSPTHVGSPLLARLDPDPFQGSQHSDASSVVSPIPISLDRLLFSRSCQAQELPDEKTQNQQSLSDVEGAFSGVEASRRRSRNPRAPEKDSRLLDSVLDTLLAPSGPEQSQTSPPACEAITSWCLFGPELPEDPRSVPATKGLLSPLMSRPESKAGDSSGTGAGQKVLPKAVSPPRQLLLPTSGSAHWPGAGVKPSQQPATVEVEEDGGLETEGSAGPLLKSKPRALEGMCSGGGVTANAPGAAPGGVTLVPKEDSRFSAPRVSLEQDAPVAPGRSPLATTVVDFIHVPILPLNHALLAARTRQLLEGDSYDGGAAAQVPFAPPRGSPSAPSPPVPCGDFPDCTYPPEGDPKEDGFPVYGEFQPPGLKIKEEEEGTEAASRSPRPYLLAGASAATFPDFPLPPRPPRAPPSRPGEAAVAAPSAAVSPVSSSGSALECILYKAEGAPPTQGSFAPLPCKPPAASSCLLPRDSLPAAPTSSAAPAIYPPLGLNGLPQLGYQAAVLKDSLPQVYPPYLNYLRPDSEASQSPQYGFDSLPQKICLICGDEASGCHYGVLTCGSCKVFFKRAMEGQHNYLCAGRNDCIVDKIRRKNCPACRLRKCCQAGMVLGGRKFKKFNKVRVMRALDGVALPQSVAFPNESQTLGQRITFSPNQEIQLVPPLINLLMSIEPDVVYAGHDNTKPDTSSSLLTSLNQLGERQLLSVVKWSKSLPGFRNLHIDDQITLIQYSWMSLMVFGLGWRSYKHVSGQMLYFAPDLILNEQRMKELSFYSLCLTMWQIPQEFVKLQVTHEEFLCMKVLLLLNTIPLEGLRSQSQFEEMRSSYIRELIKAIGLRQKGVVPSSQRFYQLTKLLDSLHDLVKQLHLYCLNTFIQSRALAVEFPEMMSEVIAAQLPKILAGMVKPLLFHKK

Which EC50 (Progesterone receptor) does the source give for C=CCC1Oc2cccc(OC)c2-c2ccc3c(c21)C(C)=CC(C)(C)N3 (configuration not stated) [AL-43] here?
The EC50 was 126 nM.

What about the EC50 (Glucocorticoid receptor) of the same compound?
Its EC50 is 7.94 nM.
